# From US11236129B2, “IL-17A binding peptides and medical uses thereof” (Dompe' Farmaceutici S.P.A., priority 2018, dated 2022)
# Residues, ends and D or L forms follow the SMILES beside them.
# Molecular target: IL-17RA/IL17RC dimerization induced by IL-17A (Homo sapiens, UniProt Q16552)
# Test: IL-17RA/IL17RC dimerization assay in response to IL-17A (PathHunter Cytokine Receptor Assay)
# Format: cell-based
# Conditions: IL-17A at EC80; read-out: IC50 in IL-17RA/IL7RC dimerization assay
# Procedure, shortened: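 PathHunter cells with IL-17RA and IL-17RC tagged for β-galactosidase complementation were preincubated 60 min with peptide (1% vehicle). IL-17A was then added at EC80 for 6–16 h at 37 °C, and chemiluminescence was read. Inhibition is relative to the EC80 and vehicle controls.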
# Chain of IL-17RA/IL17RC dimerization induced by IL-17A (Q16552 24-155): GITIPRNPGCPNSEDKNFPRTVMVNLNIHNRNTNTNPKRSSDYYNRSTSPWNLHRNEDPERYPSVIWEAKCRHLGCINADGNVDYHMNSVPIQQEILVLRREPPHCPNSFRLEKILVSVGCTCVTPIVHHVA
row,Compound,IC50
1,CC[C@H](C)[C@H](NC(C)=O)C(=O)N[C@@H](Cc1c[nH]cn1)C(=O)N[C@@H](Cc1ccc(O)cc1)C(=O)N[C@H](C(=O)N[C@H](C(=O)N1CCC[C@H]1C(=O)N[C@@H](C)C(=O)N[C@@H](CC(=O)O)C(=O)N[C@@H](CC(C)C)C(=O)N[C@@H](Cc1c[nH]c2ccccc12)C(=O)N[C@@H](CC(=O)O)C(=O)N[C@@H](Cc1c[nH]c2ccccc12)C(=O)N[C@H](C(=O)N[C@@H](CC(N)=O)C(=O)N[C@@H](CCCCN)C(N)=O)[C@@H](C)CC)[C@@H](C)CC)[C@@H](C)O [SEQ ID NO: 172] (Ac-IHYTIPADLWDWINK-NH2),< 10 µM
2,CC[C@H](C)[C@H](NC(C)=O)C(=O)N[C@@H](Cc1c[nH]cn1)C(=O)N[C@@H](Cc1c[nH]c2ccccc12)C(=O)N[C@H](C(=O)N[C@H](C(=O)N1CCC[C@H]1C(=O)N[C@@H](C)C(=O)N[C@@H](CC(=O)O)C(=O)N[C@@H](CC(C)C)C(=O)N[C@@H](Cc1c[nH]c2ccccc12)C(=O)N[C@@H](CC(=O)O)C(=O)N[C@@H](Cc1c[nH]c2ccccc12)C(=O)N[C@H](C(=O)N[C@@H](CC(N)=O)C(=O)N[C@@H](CCCCN)C(N)=O)[C@@H](C)CC)[C@@H](C)CC)[C@@H](C)O [SEQ ID NO: 173] (Ac-IHWTIPADLWDWINK-NH2),< 10 µM
3,CC[C@H](C)[C@H](NC(C)=O)C(=O)N[C@@H](Cc1c[nH]cn1)C(=O)N[C@@H](Cc1ccccc1)C(=O)N[C@H](C(=O)N[C@H](C(=O)N1CCC[C@H]1C(=O)N[C@@H](C)C(=O)N[C@@H](CC(=O)O)C(=O)N[C@@H](CC(C)C)C(=O)N[C@@H](Cc1c[nH]c2ccccc12)C(=O)N[C@@H](CC(=O)O)C(=O)N[C@@H](Cc1c[nH]c2ccccc12)C(=O)N[C@H](C(=O)N[C@@H](CC(N)=O)C(=O)N[C@@H](CCCCN)C(N)=O)[C@@H](C)CC)[C@@H](C)CC)[C@@H](C)O [SEQ ID NO: 174] (Ac-IHFTIPADLWDWINK-NH2),< 10 µM
4,CC[C@H](C)[C@H](NC(C)=O)C(=O)N[C@@H](Cc1c[nH]cn1)C(=O)N[C@H](C(=O)N[C@@H](CO)C(=O)N[C@H](C(=O)N1CCC[C@H]1C(=O)N[C@@H](C)C(=O)N[C@@H](CC(=O)O)C(=O)N[C@@H](CC(C)C)C(=O)N[C@@H](Cc1c[nH]c2ccccc12)C(=O)N[C@@H](CC(=O)O)C(=O)N[C@@H](Cc1c[nH]c2ccccc12)C(=O)N[C@H](C(=O)N[C@@H](CC(N)=O)C(=O)N[C@@H](CCCCN)C(N)=O)[C@@H](C)CC)[C@@H](C)CC)C(C)C [SEQ ID NO: 175] (Ac-IHVSIPADLWDWINK-NH2),< 10 µM
5,CC[C@H](C)[C@H](NC(C)=O)C(=O)N[C@@H](Cc1c[nH]cn1)C(=O)N[C@H](C(=O)N[C@@H](Cc1ccc(O)cc1)C(=O)N[C@H](C(=O)N1CCC[C@H]1C(=O)N[C@@H](C)C(=O)N[C@@H](CC(=O)O)C(=O)N[C@@H](CC(C)C)C(=O)N[C@@H](Cc1c[nH]c2ccccc12)C(=O)N[C@@H](CC(=O)O)C(=O)N[C@@H](Cc1c[nH]c2ccccc12)C(=O)N[C@H](C(=O)N[C@@H](CC(N)=O)C(=O)N[C@@H](CCCCN)C(N)=O)[C@@H](C)CC)[C@@H](C)CC)C(C)C [SEQ ID NO: 176] (Ac-IHVYIPADLWDWINK-NH2),< 10 µM
6,CC[C@H](C)[C@H](NC(C)=O)C(=O)N[C@@H](Cc1c[nH]cn1)C(=O)N[C@H](C(=O)N[C@@H](CC(N)=O)C(=O)N[C@H](C(=O)N1CCC[C@H]1C(=O)N[C@@H](C)C(=O)N[C@@H](CC(=O)O)C(=O)N[C@@H](CC(C)C)C(=O)N[C@@H](Cc1c[nH]c2ccccc12)C(=O)N[C@@H](CC(=O)O)C(=O)N[C@@H](Cc1c[nH]c2ccccc12)C(=O)N[C@H](C(=O)N[C@@H](CC(N)=O)C(=O)N[C@@H](CCCCN)C(N)=O)[C@@H](C)CC)[C@@H](C)CC)C(C)C [SEQ ID NO: 177] (Ac-IHVNIPADLWDWINK-NH2),< 10 µM
7,CC[C@H](C)[C@H](NC(C)=O)C(=O)N[C@@H](Cc1c[nH]cn1)C(=O)N[C@H](C(=O)N[C@@H](CCC(N)=O)C(=O)N[C@H](C(=O)N1CCC[C@H]1C(=O)N[C@@H](C)C(=O)N[C@@H](CC(=O)O)C(=O)N[C@@H](CC(C)C)C(=O)N[C@@H](Cc1c[nH]c2ccccc12)C(=O)N[C@@H](CC(=O)O)C(=O)N[C@@H](Cc1c[nH]c2ccccc12)C(=O)N[C@H](C(=O)N[C@@H](CC(N)=O)C(=O)N[C@@H](CCCCN)C(N)=O)[C@@H](C)CC)[C@@H](C)CC)C(C)C [SEQ ID NO: 178] (Ac-IHVQIPADLWDWINK-NH2),< 10 µM
8,CC[C@H](C)[C@H](NC(C)=O)C(=O)N[C@@H](Cc1c[nH]cn1)C(=O)N[C@H](C(=O)N[C@H](C(=O)N[C@@H](C)C(=O)N1CCC[C@H]1C(=O)N[C@@H](C)C(=O)N[C@@H](CC(=O)O)C(=O)N[C@@H](CC(C)C)C(=O)N[C@@H](Cc1c[nH]c2ccccc12)C(=O)N[C@@H](CC(=O)O)C(=O)N[C@@H](Cc1c[nH]c2ccccc12)C(=O)N[C@H](C(=O)N[C@@H](CC(N)=O)C(=O)N[C@@H](CCCCN)C(N)=O)[C@@H](C)CC)[C@@H](C)O)C(C)C [SEQ ID NO: 179] (Ac-IHVTAPADLWDWINK-NH2),< 10 µM
9,CC[C@H](C)[C@H](NC(C)=O)C(=O)N[C@@H](Cc1c[nH]cn1)C(=O)N[C@H](C(=O)N[C@H](C(=O)NCC(=O)N1CCC[C@H]1C(=O)N[C@@H](C)C(=O)N[C@@H](CC(=O)O)C(=O)N[C@@H](CC(C)C)C(=O)N[C@@H](Cc1c[nH]c2ccccc12)C(=O)N[C@@H](CC(=O)O)C(=O)N[C@@H](Cc1c[nH]c2ccccc12)C(=O)N[C@H](C(=O)N[C@@H](CC(N)=O)C(=O)N[C@@H](CCCCN)C(N)=O)[C@@H](C)CC)[C@@H](C)O)C(C)C [SEQ ID NO: 180] (Ac-IHVTGPADLWDWINK-NH2),< 10 µM
10,CC[C@H](C)[C@H](NC(C)=O)C(=O)N[C@@H](Cc1c[nH]cn1)C(=O)N[C@H](C(=O)N[C@H](C(=O)N[C@@H](CC(C)C)C(=O)N1CCC[C@H]1C(=O)N[C@@H](C)C(=O)N[C@@H](CC(=O)O)C(=O)N[C@@H](CC(C)C)C(=O)N[C@@H](Cc1c[nH]c2ccccc12)C(=O)N[C@@H](CC(=O)O)C(=O)N[C@@H](Cc1c[nH]c2ccccc12)C(=O)N[C@H](C(=O)N[C@@H](CC(N)=O)C(=O)N[C@@H](CCCCN)C(N)=O)[C@@H](C)CC)[C@@H](C)O)C(C)C [SEQ ID NO: 181] (Ac-IHVTLPADLWDWINK-NH2),< 10 µM
11,CC[C@H](C)[C@H](NC(C)=O)C(=O)N[C@@H](Cc1c[nH]cn1)C(=O)N[C@H](C(=O)N[C@H](C(=O)N1CCC[C@H]1C(=O)N1CCC[C@H]1C(=O)N[C@@H](C)C(=O)N[C@@H](CC(=O)O)C(=O)N[C@@H](CC(C)C)C(=O)N[C@@H](Cc1c[nH]c2ccccc12)C(=O)N[C@@H](CC(=O)O)C(=O)N[C@@H](Cc1c[nH]c2ccccc12)C(=O)N[C@H](C(=O)N[C@@H](CC(N)=O)C(=O)N[C@@H](CCCCN)C(N)=O)[C@@H](C)CC)[C@@H](C)O)C(C)C [SEQ ID NO: 182] (Ac-IHVTPPADLWDWINK-NH2),< 10 µM
12,CC[C@H](C)[C@H](NC(C)=O)C(=O)N[C@@H](Cc1c[nH]cn1)C(=O)N[C@H](C(=O)N[C@H](C(=O)N[C@H](C(=O)N1CCC[C@H]1C(=O)N[C@@H](C)C(=O)N[C@@H](CC(=O)O)C(=O)N[C@@H](CC(C)C)C(=O)N[C@@H](Cc1c[nH]c2ccccc12)C(=O)N[C@@H](CC(=O)O)C(=O)N[C@@H](Cc1c[nH]c2ccccc12)C(=O)N[C@H](C(=O)N[C@@H](CC(N)=O)C(=O)N[C@@H](CCCCN)C(N)=O)[C@@H](C)CC)C(C)C)[C@@H](C)O)C(C)C [SEQ ID NO: 183] (Ac-IHVTVPADLWDWINK-NH2),< 10 µM
13,CC[C@H](C)[C@H](NC(C)=O)C(=O)N[C@@H](Cc1c[nH]cn1)C(=O)N[C@H](C(=O)N[C@H](C(=O)N[C@@H](Cc1ccccc1)C(=O)N1CCC[C@H]1C(=O)N[C@@H](C)C(=O)N[C@@H](CC(=O)O)C(=O)N[C@@H](CC(C)C)C(=O)N[C@@H](Cc1c[nH]c2ccccc12)C(=O)N[C@@H](CC(=O)O)C(=O)N[C@@H](Cc1c[nH]c2ccccc12)C(=O)N[C@H](C(=O)N[C@@H](CC(N)=O)C(=O)N[C@@H](CCCCN)C(N)=O)[C@@H](C)CC)[C@@H](C)O)C(C)C [SEQ ID NO: 184] (Ac-IHVTFPADLWDWINK-NH2),< 10 µM
14,CC[C@H](C)[C@H](NC(C)=O)C(=O)N[C@@H](Cc1c[nH]cn1)C(=O)N[C@H](C(=O)N[C@H](C(=O)N[C@@H](Cc1ccc(O)cc1)C(=O)N1CCC[C@H]1C(=O)N[C@@H](C)C(=O)N[C@@H](CC(=O)O)C(=O)N[C@@H](CC(C)C)C(=O)N[C@@H](Cc1c[nH]c2ccccc12)C(=O)N[C@@H](CC(=O)O)C(=O)N[C@@H](Cc1c[nH]c2ccccc12)C(=O)N[C@H](C(=O)N[C@@H](CC(N)=O)C(=O)N[C@@H](CCCCN)C(N)=O)[C@@H](C)CC)[C@@H](C)O)C(C)C [SEQ ID NO: 185] (Ac-IHVTYPADLWDWINK-NH2),< 10 µM
15,CC[C@H](C)[C@H](NC(C)=O)C(=O)N[C@@H](Cc1c[nH]cn1)C(=O)N[C@H](C(=O)N[C@H](C(=O)N[C@H](C(=O)N[C@@H](C)C(=O)N[C@@H](C)C(=O)N[C@@H](CC(=O)O)C(=O)N[C@@H](CC(C)C)C(=O)N[C@@H](Cc1c[nH]c2ccccc12)C(=O)N[C@@H](CC(=O)O)C(=O)N[C@@H](Cc1c[nH]c2ccccc12)C(=O)N[C@H](C(=O)N[C@@H](CC(N)=O)C(=O)N[C@@H](CCCCN)C(N)=O)[C@@H](C)CC)[C@@H](C)CC)[C@@H](C)O)C(C)C [SEQ ID NO: 186] (Ac-IHVTIAADLWDWINK-NH2),< 10 µM
16,CC[C@H](C)[C@H](NC(C)=O)C(=O)N[C@@H](Cc1c[nH]cn1)C(=O)N[C@H](C(=O)N[C@H](C(=O)N[C@H](C(=O)NCC(=O)N[C@@H](C)C(=O)N[C@@H](CC(=O)O)C(=O)N[C@@H](CC(C)C)C(=O)N[C@@H](Cc1c[nH]c2ccccc12)C(=O)N[C@@H](CC(=O)O)C(=O)N[C@@H](Cc1c[nH]c2ccccc12)C(=O)N[C@H](C(=O)N[C@@H](CC(N)=O)C(=O)N[C@@H](CCCCN)C(N)=O)[C@@H](C)CC)[C@@H](C)CC)[C@@H](C)O)C(C)C [SEQ ID NO: 187] (Ac-IHVTIGADLWDWINK-NH2),< 10 µM
